Source: patent publication US20080009418A1, “Selective Inhibitors” (Alchemia LTD., priority 2004, published 2008)

Key:
Conditions in all cases: compound at 10 μM
[1] = biological target: T1, Human Melanocortin (MC3) (Homo sapiens, UniProt P41968); assay: Radioligand binding, human melanocortin MC3 membranes, FlashPlate, [125I]-NDP-αMSH
T1 construct: purchased Perkin Elmer Biosignal
Outline: (§1)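 Cloned human receptor membranes were coated onto FlashPlate wells and incubated with radioligand and compound (added from a 0.5 mM DMSO daughter plate) for 1 hour at room temperature in the dark. Scintillation counting gave percent inhibition, with DMSO defining total and reference ligand defining non-specific binding.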

[2] = biological target: T2, Human δ-opioid (DOP) (Homo sapiens, UniProt P41143); assay: Radioligand binding, human δ-opioid (DOP) membranes, FlashPlate, [3H]-Bremazocine
T2 construct: purchased Perkin Elmer Biosignal
T2 sequence (P41143 whole entry): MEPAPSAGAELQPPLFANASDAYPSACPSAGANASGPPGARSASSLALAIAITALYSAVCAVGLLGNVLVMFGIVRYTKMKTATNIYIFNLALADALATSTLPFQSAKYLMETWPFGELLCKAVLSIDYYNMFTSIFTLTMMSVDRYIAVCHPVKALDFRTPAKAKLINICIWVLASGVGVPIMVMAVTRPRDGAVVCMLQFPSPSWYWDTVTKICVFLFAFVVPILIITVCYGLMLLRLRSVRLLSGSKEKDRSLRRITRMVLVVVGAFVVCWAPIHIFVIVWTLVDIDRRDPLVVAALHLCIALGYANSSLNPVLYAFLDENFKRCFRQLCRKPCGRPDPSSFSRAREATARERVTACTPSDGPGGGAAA
Outline: as §1

[3] = biological target: T3, Human μ-opioid (MOP) (Homo sapiens, UniProt P35372); assay: Radioligand binding, human μ-opioid (MOP) membranes, FlashPlate, [3H]-Naloxone
T3 construct: purchased Perkin Elmer Biosignal
T3 sequence (P35372 whole entry): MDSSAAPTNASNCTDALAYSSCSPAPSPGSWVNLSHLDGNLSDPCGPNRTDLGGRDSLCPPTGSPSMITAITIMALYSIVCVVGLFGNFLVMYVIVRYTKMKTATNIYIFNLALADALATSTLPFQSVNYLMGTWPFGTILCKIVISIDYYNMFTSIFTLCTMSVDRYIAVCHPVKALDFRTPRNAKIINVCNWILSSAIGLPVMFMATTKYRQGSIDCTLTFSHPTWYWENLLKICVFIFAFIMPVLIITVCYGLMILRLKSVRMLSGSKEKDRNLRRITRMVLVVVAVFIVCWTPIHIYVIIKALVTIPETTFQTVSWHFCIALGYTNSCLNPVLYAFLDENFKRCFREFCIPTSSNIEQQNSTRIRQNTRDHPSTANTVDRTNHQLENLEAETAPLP
Outline: as §1

[4] = biological target: T4, Human neurokinin (NK1) (Homo sapiens, UniProt P25103); assay: Radioligand binding, human neurokinin NK1 membranes, filtration, [125I]-Substance P
T4 construct: purchased Perkin Elmer Biosignal
T4 sequence (P25103 whole entry): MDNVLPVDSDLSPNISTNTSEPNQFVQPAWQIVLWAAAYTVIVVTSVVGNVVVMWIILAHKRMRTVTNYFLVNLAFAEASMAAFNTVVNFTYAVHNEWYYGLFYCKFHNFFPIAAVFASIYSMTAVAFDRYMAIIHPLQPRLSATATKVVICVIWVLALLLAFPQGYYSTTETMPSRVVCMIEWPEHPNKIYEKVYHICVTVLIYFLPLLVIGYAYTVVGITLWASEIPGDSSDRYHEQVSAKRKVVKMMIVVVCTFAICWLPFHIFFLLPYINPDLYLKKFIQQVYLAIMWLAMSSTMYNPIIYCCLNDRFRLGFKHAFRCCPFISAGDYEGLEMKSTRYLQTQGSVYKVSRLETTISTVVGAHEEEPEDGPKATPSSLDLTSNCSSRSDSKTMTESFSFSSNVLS
Outline: (§2)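 Membranes from cloned human receptors were incubated with compound and radioligand for 1 hour at room temperature. Bound ligand was collected on 0.3% PEI-soaked filters, washed with cold 50 mM Tris-HCl pH 7.4, and counted by scintillation. Percent inhibition was computed against DMSO totals and reference-ligand nonspecific wells.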

[5] = biological target: T5, Human melanocortin (MC5) (Homo sapiens, UniProt P33032); assay: Radioligand binding, human melanocortin MC5 membranes, FlashPlate, [125I]-NDP-αMSH
T5 construct: purchased Perkin Elmer Biosignal
T5 sequence (P33032 whole entry): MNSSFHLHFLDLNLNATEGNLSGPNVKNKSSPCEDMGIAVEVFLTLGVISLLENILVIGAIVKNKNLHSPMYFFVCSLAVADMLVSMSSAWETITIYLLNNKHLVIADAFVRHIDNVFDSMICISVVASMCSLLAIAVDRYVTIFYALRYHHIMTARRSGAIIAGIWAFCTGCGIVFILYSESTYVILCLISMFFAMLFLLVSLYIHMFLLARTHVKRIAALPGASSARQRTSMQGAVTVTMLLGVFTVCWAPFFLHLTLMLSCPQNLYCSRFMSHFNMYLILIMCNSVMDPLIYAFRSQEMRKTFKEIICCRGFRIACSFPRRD
Outline: as §1

[6] = biological target: T6, Human Melanocortin (MC4) (Homo sapiens, UniProt P32245); assay: Radioligand binding, human melanocortin MC4 membranes, FlashPlate, [125I]-NDP-αMSH
T6 construct: purchased Perkin Elmer Biosignal
T6 sequence (P32245 whole entry): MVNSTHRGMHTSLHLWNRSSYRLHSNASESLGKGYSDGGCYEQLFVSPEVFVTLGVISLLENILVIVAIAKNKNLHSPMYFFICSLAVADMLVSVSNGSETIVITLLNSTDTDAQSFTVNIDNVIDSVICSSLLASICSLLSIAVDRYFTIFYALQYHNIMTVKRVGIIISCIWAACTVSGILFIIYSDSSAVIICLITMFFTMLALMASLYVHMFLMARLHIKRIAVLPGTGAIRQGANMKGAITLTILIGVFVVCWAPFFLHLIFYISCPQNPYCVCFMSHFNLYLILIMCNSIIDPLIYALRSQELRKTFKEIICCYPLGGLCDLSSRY
Outline: as §1

[7] = biological target: T7, Mouse urotensin (mUR2) (Mus musculus, UniProt Q8VIH9); assay: Radioligand binding, mouse urotensin mUR2 membranes, FlashPlate, [125I]-Urotensin II
T7 construct: purchased Perkin Elmer Biosignal
T7 sequence (Q8VIH9 1-385): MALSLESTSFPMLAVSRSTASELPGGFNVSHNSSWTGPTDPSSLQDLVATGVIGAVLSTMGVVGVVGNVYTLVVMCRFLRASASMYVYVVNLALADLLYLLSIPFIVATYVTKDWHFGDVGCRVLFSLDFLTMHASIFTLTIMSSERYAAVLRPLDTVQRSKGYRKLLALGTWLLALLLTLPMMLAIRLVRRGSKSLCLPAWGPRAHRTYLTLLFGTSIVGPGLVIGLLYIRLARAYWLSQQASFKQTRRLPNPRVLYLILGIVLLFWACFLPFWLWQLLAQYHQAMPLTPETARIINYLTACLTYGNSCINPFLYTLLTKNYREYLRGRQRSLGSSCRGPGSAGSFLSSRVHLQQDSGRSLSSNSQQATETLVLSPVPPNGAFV
Outline: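 Cloned mouse urotensin (mUR2) receptor membranes from Perkin Elmer Biosignal were immobilized in FlashPlate microplates using a proprietary coating. Each well got 19.5 μl buffer, then 0.5 μl of DMSO, reference ligand, or compound. Adding 5 μl of [125I]-Urotensin II, diluted to 5× final concentration in binding buffer, started binding. Plates were sealed with TopSeal-A and incubated 1 hour at room temperature in the dark. Wells were counted for 30 seconds each on a TopCount after a 60-second delay, and percentage inhibition was calculated.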

[8] = biological target: T8, Human melanin-concentrating hormone (MCH1) (Homo sapiens, UniProt Q99705); assay: Radioligand binding, human melanin-concentrating hormone MCH1 membranes, FlashPlate, [125I]-S36057
T8 construct: purchased Perkin Elmer Biosignal
T8 sequence (Q99705 whole entry): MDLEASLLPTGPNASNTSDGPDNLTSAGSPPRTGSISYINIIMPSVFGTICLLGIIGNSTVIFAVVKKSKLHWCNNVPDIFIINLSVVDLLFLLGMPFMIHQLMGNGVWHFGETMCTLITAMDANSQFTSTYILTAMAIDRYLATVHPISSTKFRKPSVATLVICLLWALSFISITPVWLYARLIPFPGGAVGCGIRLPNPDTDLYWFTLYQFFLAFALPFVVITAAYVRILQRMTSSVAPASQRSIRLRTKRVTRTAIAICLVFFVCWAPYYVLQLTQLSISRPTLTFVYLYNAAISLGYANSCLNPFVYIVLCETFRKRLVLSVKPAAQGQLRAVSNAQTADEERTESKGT
Outline: as §1

[9] = biological target: T9, Human κ-Opioid (KOP) (Homo sapiens, UniProt P41145); assay: Radioligand binding, human κ-opioid (KOP) membranes, filtration, [3H]-Diprenorphine
T9 construct: purchased Perkin Elmer Biosignal
T9 sequence (P41145 whole entry): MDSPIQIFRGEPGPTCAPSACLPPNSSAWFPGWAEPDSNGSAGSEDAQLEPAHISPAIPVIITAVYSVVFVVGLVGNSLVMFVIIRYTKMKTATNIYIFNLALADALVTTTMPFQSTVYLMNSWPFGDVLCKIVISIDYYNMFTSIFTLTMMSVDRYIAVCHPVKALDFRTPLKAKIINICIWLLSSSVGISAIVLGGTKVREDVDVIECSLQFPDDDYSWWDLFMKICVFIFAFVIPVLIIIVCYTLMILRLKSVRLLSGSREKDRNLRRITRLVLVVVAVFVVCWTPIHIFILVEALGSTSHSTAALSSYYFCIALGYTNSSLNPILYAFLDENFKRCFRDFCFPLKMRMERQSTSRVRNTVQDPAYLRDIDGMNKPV
Outline: as §2

[10] = biological target: T10, Human neuropeptide Y (NPY-Y1) (Homo sapiens, UniProt P25929); assay: Radioligand binding, human neuropeptide Y NPY-Y1 membranes, FlashPlate, [125I]-PYY
T10 construct: purchased Perkin Elmer Biosignal
T10 sequence (P25929 1-384): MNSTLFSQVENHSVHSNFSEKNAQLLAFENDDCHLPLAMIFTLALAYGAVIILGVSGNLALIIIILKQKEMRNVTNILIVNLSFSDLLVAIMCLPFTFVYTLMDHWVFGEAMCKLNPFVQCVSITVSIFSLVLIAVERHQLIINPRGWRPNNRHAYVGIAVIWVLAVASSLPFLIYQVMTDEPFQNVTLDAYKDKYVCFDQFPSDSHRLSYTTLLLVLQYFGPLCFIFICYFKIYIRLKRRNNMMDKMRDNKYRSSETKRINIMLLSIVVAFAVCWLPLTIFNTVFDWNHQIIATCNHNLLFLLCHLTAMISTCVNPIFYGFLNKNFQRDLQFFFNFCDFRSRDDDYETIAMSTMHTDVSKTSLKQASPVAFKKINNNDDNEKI
Outline: as §1

[11] = biological target: T11, Human opioid (ORL1) (Homo sapiens, UniProt P41146); assay: Radioligand binding, human opioid ORL1 membranes, FlashPlate, [125I]-Nociceptin
T11 construct: purchased Perkin Elmer Biosignal
T11 sequence (P41146 whole entry): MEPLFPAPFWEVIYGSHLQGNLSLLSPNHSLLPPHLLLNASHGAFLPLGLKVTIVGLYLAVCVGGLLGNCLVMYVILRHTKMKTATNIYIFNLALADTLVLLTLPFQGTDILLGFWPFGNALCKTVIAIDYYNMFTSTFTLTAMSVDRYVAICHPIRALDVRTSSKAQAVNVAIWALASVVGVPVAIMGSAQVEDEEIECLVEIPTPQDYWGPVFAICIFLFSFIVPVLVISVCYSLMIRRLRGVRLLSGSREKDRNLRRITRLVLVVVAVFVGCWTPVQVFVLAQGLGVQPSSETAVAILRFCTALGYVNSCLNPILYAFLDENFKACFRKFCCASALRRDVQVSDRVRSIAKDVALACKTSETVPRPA
Outline: as §1

T1 sequence (P41968 whole entry): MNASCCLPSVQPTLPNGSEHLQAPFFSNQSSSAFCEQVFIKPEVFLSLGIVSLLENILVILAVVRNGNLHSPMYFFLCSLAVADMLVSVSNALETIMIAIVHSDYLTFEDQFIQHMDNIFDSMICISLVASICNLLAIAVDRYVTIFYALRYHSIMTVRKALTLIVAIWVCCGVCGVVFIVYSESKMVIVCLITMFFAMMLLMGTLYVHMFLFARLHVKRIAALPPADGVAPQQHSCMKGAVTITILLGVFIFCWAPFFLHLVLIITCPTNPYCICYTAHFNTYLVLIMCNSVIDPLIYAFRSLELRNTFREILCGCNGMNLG

## COC[C@H]1OC(OCc2ccc(-c3ccccc3)cc2)[C@H](NC(=O)CCCN)[C@@H](OCc2ccc(-c3ccccc3)cc2)[C@@H]1O (stereo partly shown) [compound 2]
[1]; human melanocortin MC3 membranes
  A3 radioligand binding inhibition: − (“−” indicates less than 50% inhibition at 10 μM)
[2]; human δ-opioid (DOP) membranes
  A1 radioligand binding inhibition: − (“−” indicates less than 50% inhibition at 10 μM)
[3]; human μ-opioid (MOP) membranes
  A7 radioligand binding inhibition: − (“−” indicates less than 50% inhibition at 10 μM)
[4]; human neurokinin NK1 membranes
  A8 radioligand binding inhibition: + (“+” indicates greater than 50% inhibition at 10 μM)
[5]; human melanocortin MC5 membranes
  A5 radioligand binding inhibition: + (“+” indicates greater than 50% inhibition at 10 μM)
[6]; human melanocortin MC4 membranes
  A4 radioligand binding inhibition: + (“+” indicates greater than 50% inhibition at 10 μM)
[7]; mouse urotensin mUR2 membranes
  A11 radioligand binding inhibition: − (“−” indicates less than 50% inhibition at 10 μM)
[8]; human MCH1 membranes
  A6 radioligand binding inhibition: + (“+” indicates greater than 50% inhibition at 10 μM)
[9]; human κ-opioid (KOP) membranes
  A2 radioligand binding inhibition: − (“−” indicates less than 50% inhibition at 10 μM)
[10]; human NPY-Y1 membranes
  A9 radioligand binding inhibition: − (“−” indicates less than 50% inhibition at 10 μM)
[11]; human ORL1 membranes
  A10 radioligand binding inhibition: − (“−” indicates less than 50% inhibition at 10 μM)

## COCC1OC(OCc2ccc3ccccc3c2)C(NC(=O)CCN)C(OCc2ccc3ccccc3c2)C1O (stereo not shown) [compound 546]
[1]; [125I]-NDP-αMSH
  A3: inhibition of radioligand binding, human melanocortin (MC3): − (“−” indicates less than 50% inhibition at 10 μM)
[2]; [3H]-Bremazocine
  A1: inhibition of radioligand binding, human δ-opioid (DOP): − (“−” indicates less than 50% inhibition at 10 μM)
[3]; [3H]-Naloxone
  A7: inhibition of radioligand binding, human μ-opioid (MOP): − (“−” indicates less than 50% inhibition at 10 μM)
[4]; [125I]-Substance P, 10 µM
  A8: inhibition of radioligand binding, human neurokinin (NK1): − (“−” indicates less than 50% inhibition at 10 μM)
[5]; [125I]-NDP-αMSH, 10 µM
  A5: inhibition of radioligand binding, human melanocortin (MC5): + (“+” indicates greater than 50% inhibition at 10 μM)
[6]; [125I]-NDP-αMSH
  A4: inhibition of radioligand binding, human melanocortin (MC4): − (“−” indicates less than 50% inhibition at 10 μM)
[7]; [125I]-Urotensin II
  A11: inhibition of radioligand binding, mouse urotensin (mUR2): − (“−” indicates less than 50% inhibition at 10 μM)
[8]; [125I]-S36057
  A6: inhibition of radioligand binding, human melanin-concentrating hormone (MCH1): − (“−” indicates less than 50% inhibition at 10 μM)
[9]; [3H]-Diprenorphine
  A2: inhibition of radioligand binding, human κ-opioid (KOP): − (“−” indicates less than 50% inhibition at 10 μM)
[10]; [125I]-PYY
  A9: inhibition of radioligand binding, human neuropeptide Y (NPY-Y1): − (“−” indicates less than 50% inhibition at 10 μM)
[11]; [125I]-Nociceptin
  A10: inhibition of radioligand binding, human opioid (ORL1): − (“−” indicates less than 50% inhibition at 10 μM)

## NCCC(=O)N[C@H]1C(OCc2ccc3ccccc3c2)O[C@H](COCc2ccc3ccccc3c2)[C@@H](O)[C@@H]1OCc1ccccc1 (stereo partly shown) [compound 448]
[1]; [125I]-NDP-αMSH, human MC3 membranes, 10 µM
  A3: inhibition of radioligand binding: − (“−” indicates less than 50% inhibition at 10 μM)
[2]; [3H]-Bremazocine, human DOP membranes
  A1: inhibition of radioligand binding: − (“−” indicates less than 50% inhibition at 10 μM)
[3]; [3H]-Naloxone, human MOP membranes
  A7: inhibition of radioligand binding: − (“−” indicates less than 50% inhibition at 10 μM)
[4]; [125I]-Substance P, human NK1 membranes
  A8: inhibition of radioligand binding: + (“+” indicates greater than 50% inhibition at 10 μM)
[5]; [125I]-NDP-αMSH, human MC5 membranes
  A5: inhibition of radioligand binding: + (“+” indicates greater than 50% inhibition at 10 μM)
[6]; [125I]-NDP-αMSH, human MC4 membranes
  A4: inhibition of radioligand binding: + (“+” indicates greater than 50% inhibition at 10 μM)
[7]; [125I]-Urotensin II, mouse mUR2 membranes
  A11: inhibition of radioligand binding: − (“−” indicates less than 50% inhibition at 10 μM)
[8]; [125I]-S36057, human MCH1 membranes, 10 µM
  A6: inhibition of radioligand binding: − (“−” indicates less than 50% inhibition at 10 μM)
[9]; [3H]-Diprenorphine, human KOP membranes
  A2: inhibition of radioligand binding: − (“−” indicates less than 50% inhibition at 10 μM)
[10]; [125I]-PYY, human NPY-Y1 membranes
  A9: inhibition of radioligand binding: − (“−” indicates less than 50% inhibition at 10 μM)
[11]; [125I]-Nociceptin, human ORL1 membranes, 10 µM
  A10: inhibition of radioligand binding: − (“−” indicates less than 50% inhibition at 10 μM)

## N=C(N)NCC(=O)NC1COC(COCc2ccc3ccccc3c2)C(O)C1OCc1ccc(Cl)cc1 (stereo not shown) [compound 540]
[1]; [125I]-NDP-αMSH
  A3: inhibition of radioligand binding, human melanocortin (MC3): − (“−” indicates less than 50% inhibition at 10 μM)
[2]; [3H]-Bremazocine
  A1: inhibition of radioligand binding, human δ-opioid (DOP): − (“−” indicates less than 50% inhibition at 10 μM)
[3]; [3H]-Naloxone
  A7: inhibition of radioligand binding, human μ-opioid (MOP): − (“−” indicates less than 50% inhibition at 10 μM)
[4]; [125I]-Substance P
  A8: inhibition of radioligand binding, human neurokinin (NK1): + (“+” indicates greater than 50% inhibition at 10 μM)
[5]; [125I]-NDP-αMSH
  A5: inhibition of radioligand binding, human melanocortin (MC5): − (“−” indicates less than 50% inhibition at 10 μM)
[6]; [125I]-NDP-αMSH
  A4: inhibition of radioligand binding, human melanocortin (MC4): + (“+” indicates greater than 50% inhibition at 10 μM)
[7]; [125I]-Urotensin II
  A11: inhibition of radioligand binding, mouse urotensin (mUR2): − (“−” indicates less than 50% inhibition at 10 μM)
[8]; [125I]-S36057
  A6: inhibition of radioligand binding, human melanin-concentrating hormone (MCH1): − (“−” indicates less than 50% inhibition at 10 μM)
[9]; [3H]-Diprenorphine
  A2: inhibition of radioligand binding, human κ-opioid (KOP): − (“−” indicates less than 50% inhibition at 10 μM)
[10]; [125I]-PYY
  A9: inhibition of radioligand binding, human neuropeptide Y (NPY-Y1): − (“−” indicates less than 50% inhibition at 10 μM)
[11]; [125I]-Nociceptin
  A10: inhibition of radioligand binding, human opioid (ORL1): − (“−” indicates less than 50% inhibition at 10 μM)

## COCC1OC(OCc2ccccc2)C(NC(=O)CCCN)C(OCc2ccccc2)C1O (stereo not shown) [compound 174]
[1]; [125I]-NDP-αMSH
  A3 radioligand binding, percentage inhibition: − (“−” indicates less than 50% inhibition at 10 μM)
[2]; [3H]-Bremazocine
  A1 radioligand binding, percentage inhibition: − (“−” indicates less than 50% inhibition at 10 μM)
[3]; [3H]-Naloxone
  A7 radioligand binding, percentage inhibition: − (“−” indicates less than 50% inhibition at 10 μM)
[4]; [125I]-Substance P
  A8 radioligand binding, percentage inhibition: + (“+” indicates greater than 50% inhibition at 10 μM)
[5]; [125I]-NDP-αMSH
  A5 radioligand binding, percentage inhibition: − (“−” indicates less than 50% inhibition at 10 μM)
[6]; [125I]-NDP-αMSH
  A4 radioligand binding, percentage inhibition: − (“−” indicates less than 50% inhibition at 10 μM)
[7]; [125I]-Urotensin II
  A11 radioligand binding, percentage inhibition: − (“−” indicates less than 50% inhibition at 10 μM)
[8]; [125I]-S36057
  A6 radioligand binding, percentage inhibition: − (“−” indicates less than 50% inhibition at 10 μM)
[9]; [3H]-Diprenorphine
  A2 radioligand binding, percentage inhibition: − (“−” indicates less than 50% inhibition at 10 μM)
[10]; [125I]-PYY
  A9 radioligand binding, percentage inhibition: − (“−” indicates less than 50% inhibition at 10 μM)
[11]; [125I]-Nociceptin
  A10 radioligand binding, percentage inhibition: − (“−” indicates less than 50% inhibition at 10 μM)
